Measurements from patent publication US20110201620A1, “2-(3-AMINOARYL) AMINO-4-ARYL-THIAZOLES AND THEIR USE AS C-KIT INHIBITORS” (AB SCIENCE, priority 2002, published 2011).

Columns and labels:
[1] = system: imatinib-resistant HMC-1 α155 cells; experiment: Apoptosis assay by propidium iodide staining; type: cell-based, human; conditions: 1 μM
Procedure: HMC-1 is a human mast cell line derived from a patient with mast cell leukaemia. The cell line used in this study, HMC-1 α155, is a clone derived from the original population expressing endogenous Kit bearing the mutation Val 560 to Gly. […] The medium used in this case was a RPMI medium containing L-glutamine (Cambrex cat# 12-702F) supplemented with 100 U/mL penicillin and 100 μg/mL streptomycin (Cambrex 100X penicilline/streptomycine mixture cat #17-602E), and with 10% v/v foetal calf serum (AbCys Lot S02823S1800) which has been previously heat-inactivated 30 minutes at 56° C. (RPMI 10). The medium containing the drugs was replaced with fresh one every 3-4 days. […] The principle behind the method for apoptosis assay by Propidium Iodide Staining (PI staining) is as follows: during apoptosis, DNA breakup causes small fragments of DNA to be free in the nucleus. Following appropriate elution with citrate buffer, these fragments are lost from the nucleus. As these cells now have a lower DNA content, subsequent staining with a DNA binding dye will reveal these cells in the sub-G1 region.
The % apoptosis represents the percentage of cells in apoptose with respect to overall cells.

Solubility = type: physicochemical
Procedure: For detailed procedure refer to patent WO/2008/098949. AB1010 is also manufactured by AB Science, S.A. (France), or by Prestwick Chemical, Inc. (France). The chemical structure was confirmed by nuclear magnetic resonance, mass spectrometry, ultraviolet and infrared spectrometry, and elemental analysis. […] The compound, a white powder, was prepared according to the art to provide tablets. Tablet containing masitinib was used for each experiment.

[2] = Phase 2 clinical trial in advanced GIST, safety assessment; type: in vivo, human
Description: Methods; Patients: Patients enrolled in this study were aged over 18 years with inoperable, non-pretreated, histologically proven locally advanced or metastatic, c-Kit positive GIST. […] Exclusion criteria included: inadequate organ function defined via blood tests, severe liver or cardiac failure, and severe neurological or psychiatric disorders. Patients receiving a concomitant treatment within 4 weeks before inclusion, and pregnant or lactating women were also excluded. […] All adverse events (AEs), including abnormal serology or haematology, were recorded regardless of causality.

[3] = N = 30, Suspected: treatment related or not assessable

Cc1ccc(NC(=O)c2ccc(CN3CCN(C)CC3)cc2)cc1Nc1nc(-c2cccnc2)cs1 [Compound 066, 4-(4-methyl-piperazin-1-ylmethyl)-N-[4-methyl-3-(4-pyridin-3-yl-thiazol-2-ylamino)-phenyl]-benzamide]
% apoptosis (cells in apoptosis) [1]: More than 45% | solubility in 0.1 M HCl (Solubility; 0.1 M HCl): freely soluble | solubility in 0.1 M NaOH (Solubility; 0.1 M NaOH): practically insoluble | solubility in dimethylsulfoxide (Solubility; dimethylsulfoxide): freely soluble | solubility in ethanol (Solubility; ethanol): slightly soluble | solubility in n-hexane (Solubility; n-hexane): practically insoluble | solubility in propylene glycol (Solubility; propylene glycol): slightly soluble | solubility in water (Solubility; water): soluble | patients reporting one grade 4 AE (skin exfoliation) ([2]; 1/30 patient): 3.3% | patients with treatment interruption for treatment-related haematological toxicity ([2]; 1/30 patient): 3% | patients with grade 3 treatment-related rash ([2]; 3/30 patients): 10% | patients experiencing serious adverse events (SAE) ([2]; 8/30 patients): 27% | patients with treatment interruption for non-haematological AEs ([2]; 13/30 patients): 43% | patients with at least one grade 3 treatment-related AE ([2]; 14/30 patients): 47% | patients with treatment interruption for more than 8 days ([2]; 16/30 patients): 53.3% | patients with treatment-related oedemas (all types) ([2]; 21/30 patients): 70% | patients reporting at least one treatment-related AE ([2]; ITT population): All patients | treatment-related toxicity per patient: abdominal pain ([2]; ITT population): 33% | treatment-related toxicity per patient: asthenia ([2]; ITT population): 83% | treatment-related toxicity per patient: cutaneous rash ([2]; ITT population): 40% | treatment-related toxicity per patient: diarrhoea ([2]; ITT population): 57% | treatment-related toxicity per patient: eye oedema ([2]; ITT population): 47% | treatment-related toxicity per patient: muscle spasms ([2]; ITT population): 40% | treatment-related toxicity per patient: nausea ([2]; ITT population): 47% | treatment-related toxicity per patient: peripheral oedema ([2]; ITT population): 20% | treatment-related toxicity per patient: pruritus ([2]; ITT population): 33% | treatment-related toxicity per patient: upper abdominal pain ([2]; ITT population): 23% | treatment-related toxicity per patient: vomiting ([2]; ITT population): 23% | Abdominal Pain Upper, All causalities, All grades ([2]; N = 30): 9 (30.0%) Number (%) of patients | Abdominal Pain, All causalities, All grades ([2]; N = 30): 16 (53.3%) Number (%) of patients | Abdominal Pain, All causalities, G3 + G4 ([2]; N = 30): 2 (6.7%) Number (%) of patients | Anaemia, All causalities, All grades ([2]; N = 30): 6 (20.0%) Number (%) of patients | Anaemia, All causalities, G3 + G4 ([2]; N = 30): 1 (3.3%) Number (%) of patients | Asthenia, All causalities, All grades ([2]; N = 30): 27 (90.0%) Number (%) of patients | Asthenia, All causalities, G3 + G4 ([2]; N = 30): 1 (3.3%) Number (%) of patients | Diarrhoea, All causalities, All grades ([2]; N = 30): 18 (60.0%) Number (%) of patients | Diarrhoea, All causalities, G3 + G4 ([2]; N = 30): 1 (3.3%) Number (%) of patients | Dry Skin, All causalities, All grades ([2]; N = 30): 4 (13.3%) Number (%) of patients | Erythema, All causalities, All grades ([2]; N = 30): 6 (20.0%) Number (%) of patients | Eye Oedema, All causalities, All grades ([2]; N = 30): 14 (46.7%) Number (%) of patients | Eye Oedema, All causalities, G3 + G4 ([2]; N = 30): 1 (3.3%) Number (%) of patients | Eyelid Oedema, All causalities, All grades ([2]; N = 30): 7 (23.3%) Number (%) of patients | Lacrimation Increased, All causalities, All grades ([2]; N = 30): 4 (13.3%) Number (%) of patients | Mucosal Inflammation, All causalities, All grades ([2]; N = 30): 5 (16.7%) Number (%) of patients | Mucosal Inflammation, All causalities, G3 + G4 ([2]; N = 30): 1 (3.3%) Number (%) of patients | Muscle Spasms, All causalities, All grades ([2]; N = 30): 12 (40.0%) Number (%) of patients | Myalgia, All causalities, All grades ([2]; N = 30): 4 (13.3%) Number (%) of patients | Nausea, All causalities, All grades ([2]; N = 30): 15 (50.0%) Number (%) of patients | Neutropenia, All causalities, All grades ([2]; N = 30): 5 (16.7%) Number (%) of patients | Neutropenia, All causalities, G3 + G4 ([2]; N = 30): 2 (6.7%) Number (%) of patients | Oedema Peripheral, All causalities, All grades ([2]; N = 30): 8 (26.7%) Number (%) of patients | Pruritus, All causalities, All grades ([2]; N = 30): 11 (36.7%) Number (%) of patients | Pruritus, All causalities, G3 + G4 ([2]; N = 30): 1 (3.3%) Number (%) of patients | Rash, All causalities, All grades ([2]; N = 30): 12 (40.0%) Number (%) of patients | Rash, All causalities, G3 + G4 ([2]; N = 30): 3 (10.0%) Number (%) of patients | Vomiting, All causalities, All grades ([2]; N = 30): 10 (33.3%) Number (%) of patients | Abdominal Pain Upper, Suspected, All grades [2, 3]: 7 (23.3%) Number (%) of patients | Abdominal Pain, Suspected, All grades [2, 3]: 10 (33.3%) Number (%) of patients | Abdominal Pain, Suspected, G3 + G4 [2, 3]: 1 (3.3%) Number (%) of patients | Anaemia, Suspected, All grades [2, 3]: 4 (13.3%) Number (%) of patients | Anaemia, Suspected, G3 + G4 [2, 3]: 1 (3.3%) Number (%) of patients | Asthenia, Suspected, All grades [2, 3]: 25 (83.3%) Number (%) of patients | Asthenia, Suspected, G3 + G4 [2, 3]: 1 (3.3%) Number (%) of patients | Diarrhoea, Suspected, All grades [2, 3]: 17 (56.7%) Number (%) of patients | Diarrhoea, Suspected, G3 + G4 [2, 3]: 1 (3.3%) Number (%) of patients | Dry Skin, Suspected, All grades [2, 3]: 4 (13.3%) Number (%) of patients | Erythema, Suspected, All grades [2, 3]: 5 (16.7%) Number (%) of patients | Eye Oedema, Suspected, All grades [2, 3]: 14 (46.7%) Number (%) of patients | Eye Oedema, Suspected, G3 + G4 [2, 3]: 1 (3.3%) Number (%) of patients | Eyelid Oedema, Suspected, All grades [2, 3]: 7 (23.3%) Number (%) of patients | Lacrimation Increased, Suspected, All grades [2, 3]: 4 (13.3%) Number (%) of patients | Mucosal Inflammation, Suspected, All grades [2, 3]: 5 (16.7%) Number (%) of patients | Mucosal Inflammation, Suspected, G3 + G4 [2, 3]: 1 (3.3%) Number (%) of patients | Muscle Spasms, Suspected, All grades [2, 3]: 12 (40.0%) Number (%) of patients | Myalgia, Suspected, All grades [2, 3]: 4 (13.3%) Number (%) of patients | Nausea, Suspected, All grades [2, 3]: 14 (46.7%) Number (%) of patients | Neutropenia, Suspected, All grades [2, 3]: 5 (16.7%) Number (%) of patients | Neutropenia, Suspected, G3 + G4 [2, 3]: 2 (6.7%) Number (%) of patients | Oedema Peripheral, Suspected, All grades [2, 3]: 6 (20.0%) Number (%) of patients | Pruritus, Suspected, All grades [2, 3]: 10 (33.3%) Number (%) of patients | Pruritus, Suspected, G3 + G4 [2, 3]: 1 (3.3%) Number (%) of patients | Rash, Suspected, All grades [2, 3]: 12 (40.0%) Number (%) of patients | Rash, Suspected, G3 + G4 [2, 3]: 3 (10.0%) Number (%) of patients | Vomiting, Suspected, All grades [2, 3]: 7 (23.3%) Number (%) of patients | cardiac side-effects ([2]; human, in vivo): no cardiac side-effects have been observed | total number of serious adverse events (SAE) ([2]; in 8/30 patients): 14 | patients with dose reduced by 100 or 200 mg/day following grade 3-4 AEs ([2]; six patients): 20% | number of treatment-related SAE ([2]; worsening of a concomitant psoriasis and anaemia): three
